Experimental data published in patent US20260217748A1, “IBOGAINE AND N[…] AND METHODS OF USE” (Atai Therapeutics, Inc., priority 2022, published 2026).
In brackets after ≈: the same amount, converted by molar mass.

Key:
SERT = SERT (Homo sapiens, UniProt P31645); experiment: SERT Cellular Functional assay; assay type: cell-based
Chrom logD = assay type: physicochemical
Microsome half-life RLM = assay type: in vitro ADME; conditions: rat, liver microsomes
PBS solubility = assay type: physicochemical; conditions: aqueous buffer
hERG = hERG (Homo sapiens, UniProt Q12809); experiment: hERG Binding assay
Chain of hERG (Q12809 whole entry): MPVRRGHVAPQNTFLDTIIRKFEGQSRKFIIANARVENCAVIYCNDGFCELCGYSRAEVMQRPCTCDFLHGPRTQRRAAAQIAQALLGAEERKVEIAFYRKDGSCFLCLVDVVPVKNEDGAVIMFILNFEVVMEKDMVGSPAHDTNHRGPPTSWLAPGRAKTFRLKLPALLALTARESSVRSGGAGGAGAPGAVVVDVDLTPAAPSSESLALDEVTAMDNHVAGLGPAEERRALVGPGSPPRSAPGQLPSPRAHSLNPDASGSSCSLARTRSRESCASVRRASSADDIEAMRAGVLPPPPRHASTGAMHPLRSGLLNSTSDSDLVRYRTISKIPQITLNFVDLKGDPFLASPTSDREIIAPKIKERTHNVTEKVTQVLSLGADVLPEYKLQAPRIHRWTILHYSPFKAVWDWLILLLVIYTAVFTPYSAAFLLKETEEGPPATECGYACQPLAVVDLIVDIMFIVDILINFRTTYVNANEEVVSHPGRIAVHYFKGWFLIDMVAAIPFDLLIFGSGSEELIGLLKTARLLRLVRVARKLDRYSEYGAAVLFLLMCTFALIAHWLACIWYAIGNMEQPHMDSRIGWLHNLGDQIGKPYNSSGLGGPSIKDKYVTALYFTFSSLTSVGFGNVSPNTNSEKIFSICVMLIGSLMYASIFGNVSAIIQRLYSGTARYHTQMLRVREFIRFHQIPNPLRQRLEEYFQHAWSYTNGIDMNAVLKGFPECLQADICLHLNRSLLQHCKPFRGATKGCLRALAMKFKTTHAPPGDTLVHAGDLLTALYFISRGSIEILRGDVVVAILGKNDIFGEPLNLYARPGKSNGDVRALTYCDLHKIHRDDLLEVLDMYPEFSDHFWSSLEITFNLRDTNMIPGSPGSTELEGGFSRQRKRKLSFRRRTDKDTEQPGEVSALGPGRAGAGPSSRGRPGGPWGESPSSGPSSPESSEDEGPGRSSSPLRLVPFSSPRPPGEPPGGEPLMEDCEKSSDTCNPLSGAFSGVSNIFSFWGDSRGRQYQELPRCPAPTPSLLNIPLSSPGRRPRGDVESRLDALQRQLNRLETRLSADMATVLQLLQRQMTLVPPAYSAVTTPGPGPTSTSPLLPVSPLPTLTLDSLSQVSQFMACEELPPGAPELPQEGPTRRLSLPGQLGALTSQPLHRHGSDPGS

Chain of SERT (P31645 whole entry, species assumed): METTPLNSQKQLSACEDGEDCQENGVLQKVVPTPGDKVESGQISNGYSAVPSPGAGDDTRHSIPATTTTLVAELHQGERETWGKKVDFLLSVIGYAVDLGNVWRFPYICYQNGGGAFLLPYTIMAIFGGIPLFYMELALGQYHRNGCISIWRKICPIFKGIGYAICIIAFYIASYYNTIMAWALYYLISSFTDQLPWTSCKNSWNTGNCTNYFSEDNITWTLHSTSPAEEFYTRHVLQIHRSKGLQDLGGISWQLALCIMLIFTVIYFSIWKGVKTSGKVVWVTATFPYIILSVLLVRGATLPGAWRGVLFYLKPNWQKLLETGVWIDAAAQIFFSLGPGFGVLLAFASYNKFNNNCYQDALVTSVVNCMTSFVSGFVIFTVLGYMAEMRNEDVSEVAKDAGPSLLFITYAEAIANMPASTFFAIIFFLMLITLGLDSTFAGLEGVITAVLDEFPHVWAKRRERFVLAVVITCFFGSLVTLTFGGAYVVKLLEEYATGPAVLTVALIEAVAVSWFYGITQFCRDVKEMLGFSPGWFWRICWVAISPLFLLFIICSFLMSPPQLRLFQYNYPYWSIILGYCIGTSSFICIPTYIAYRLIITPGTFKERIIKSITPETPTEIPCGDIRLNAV

CC[C@H]1CC2C[C@H]3c4[nH]c5ccc(OC(C)OC)cc5c4CC[N@@](C2)C13 (stereo partly drawn) [Compound 3, (6R,7S,9S,11S)-7-ethyl-2-(1-methoxyethoxy)-6,6a,7,8,9,10,12,13-octahydro-5H-6,9-methanopyrido[1′,2′:1,2]azepino[4,5-b]indole]
IC50 (SERT): 11.9 µM
chromatographic logD (Chrom logD): 4.9
half-life (Microsome half-life RLM; +NADPH): 4 min
half-life (Microsome half-life RLM; −NADPH): > 200 min
solubility (PBS solubility): 245 µM (≈ 86.9 µg/mL)
IC50 (hERG): > 10 µM
